# Measurements as given in patent publication US12391646B2, “Using adiponectin receptor agonists to treat inflammation and bone diseases in diabetes” (Trustees of Tufts College, priority 2020, dated 2025).
# Tests used:
# [1] = system: NF-κB and p38 MAPK signaling pathways, APPL1; assay: Western blotting of signaling proteins in Raw264.7 cells; format: cell-based; conditions: for densitometry value p-IRAK4 (FIG. 5a) / densitometry value p-P38 (FIG. 5a) / densitometry value APPL1 (FIG. 5e), without LPS / densitometry value APPL1 (FIG. 5e), with LPS: relative to first lane 1.00, lane order inferred; for densitometry value p-IRAK4 (FIG. 5a) / densitometry value p-P38 (FIG. 5a): APR 20 μM or AdipoAI 5 μM 24 h, LPS 30 min; for densitometry value APPL1 (FIG. 5e), without LPS: APR 20 μM; for densitometry value APPL1 (FIG. 5e), with LPS: LPS alone 0.32
# Protocol: FIG. 5 AdipoAI inhibition of NF-κB and p38 MAPK signaling pathways is dependent of AdipoR1/APPL1 axis in LPS-induced macrophages. (a) Impact of AdipoAI in the phosphorylation of related signaling proteins by western blotting. Raw264.7 cells were pretreated with APR (20 μM) or AdipoAI (5 μM) for 24 h followed by incubation with LPS (100 ng/mL) for an additional 30 min. Representative images are shown, and quantitative analysis of protein expression was performed by densitometric analysis (see lower panel), densitometry values—p-IRAK4: 1.00, 0.13, 0.09; p-P38: 1.00, 0.76, 0.26. (b) Expression of p65 protein in cytoplasmic and nuclear extracts of Raw264.7 cells. Representative images of p65 expression are presented along with Lamin B1 and β-actin expression which were used as internal loading controls. Quantitative analysis of protein expression was performed by densitometric analysis (lower panel), Densitometry values-p-P65: 0.53, 1.00, 0.38, 0.76; P65: 0.32, 1.00, 0.21, 0.53. (c) RAW 264.7 cells were transfected with siRNA targeting cither AdipoR1, AdipoR2, APPL1, APPL2 or scrambled control siRNA for 24 h, followed by stimulation with AdipoAI or APR for 24 h, then incubation with LPS for additional 6 h. Transfection efficiency of siRNA and mRNA expression levels of IL-6, IL-1β were measured by qPCR and normalized with GAPDH mRNA levels. Data were expressed as the mean±SEM at five biological independent experiments. One-way ANOVA test for multiple-group comparisons, *P<0.05, significant differences between each indicated group. ns, not significant. (d) RAW 264.7 cells were stimulated with LPS, AdipoAI, or APR for different times and proteins levels determined by western blotting. Representative western blotting images are shown along with β-actin used as an internal loading control and densitometric analysis. Densitometry values-Panel 1: APPL1: 1.00, 0.48, 0.44; Panel 2: APPL1: 1.00, 2.17, 5.38; Panel 3: APPL1: 1.00, 2.11, 4.82. (e) Raw264.7 cells were pretreated with APR (20 μM) or AdipoAI (5 μM) for 24 h followed by incubation with LPS (100 ng/mL) for additional 6 h for the measurement of related proteins by WB. Representative images are shown along with β-actin as an internal loading control and densitometric analysis. Densitometry values—APPL1: 1.00, 1.53, 1.58, 0.32, 0.45, 0.67. (f) Raw264.7 cells and (g) BMMs were transfected with siRNA targeting APPL1 or scrambled control siRNA for 24 h, followed by stimulation with AdipoAI for 24 h, then incubation with LPS for additional 6 h for western blotting analysis. Densitometry values for f—APPL1: 1.00, 0.43; p-IRAK4: 1.00, 1.31; p-P-38:1.00, 1.47. Densitometry values for g—APPL1: 1.00, 0.38; p-IRAK4: 1.00, 1.30; p-P38: 1.00, 1.67. Representative images are shown along with β-actin as an internal loading control, and densitometric analysis. No statistical analysis of western blotting for n=3.
# Total cellular extracts were prepared using RIPA Lysis and Extraction Buffer containing three Protease Inhibitors (Thermo Scientific). Cytoplasmic and nuclear extracts were purified using NE-PER™ Nuclear and Cytoplasmic Extraction Reagents (Thermo Scientific). Experimental details of western blotting are in accordance with British Journal of Pharmacology guidelines (Alexander et al., 2018) and western blot analyses were performed as previously described (J. Zhang et al., 2017). Briefly, the total protein concentration was quantified using BCA kit (P1511; Applygen Technologies Inc., Beijing, China). The samples were separated by SDS-PAGE and electrophoretically transferred to a polyvinylidene difluoride membrane (Merck Millipore, Darmstadt, Germany). The membranes were blocked with 5% skim milk for 1 to 2 hr at room temperature. […]
# [2] = system: DIO mice with experimental periodontitis; assay: Experimental periodontitis in DIO mice; format: in vivo; conditions: for numbers of osteoclasts on alveolar bone (TRAP stain): compared to vehicle-treated DIO mice; for IL-6 and CCL-2 gene expression in periodontal epithelium: compared to vehicle-treated group; for bodyweight / decrease in fasting blood glucose level: two weeks oral gavage, AdipoRon 50 mg/kg, AdipoAI 25 mg/kg, vs vehicle; for average alveolar bone loss at 6 sites (CEJ-ABC distance): two weeks, vehicle 372.3±27.3 μm
# Protocol: FIG. 19 AdipoRon and AdipoAI attenuate experimental periodontitis in diet-induced obesity (DIO). (A) Bodyweight of vehicle, AdipoRon and AdipoAI-treated DIO mice with experimental periodontitis. (B) Fasting blood glucose in DIO mice with experimental periodontitis treated with vehicle, AdipoRon and AdipoAI. (C) A representative 3-dimensional model of alveolar bone in DIO mice with experimental periodontitis. […] The distance from ABC to CEJ in four groups is shown in (D) (n≥7). (E) Representative TRAP-stained alveolar bone in DIO mice with experimental periodontitis. Black arrow, osteoclast (scale bar=200 μm). The number of osteoclasts attached to the alveolar bone surface was calculated (F). (G) Relative expression of IL-6 and CCL2 genes in gingival tissue from DIO mice with experimental periodontitis was analyzed using real-time PCR. The animals were treated AdipoRon and AdipoAI or vehicle alone (n≥5).
# DIO (C57BL/6J background, Jax #380050) were purchased from the Jackson Laboratory (Bar Harbor, ME, http://www.jax.org/). After acclimatization, animals were fed a high-fat diet (containing 60% kcal from fat, Jackson Laboratory) from 6 weeks of age onwards. Experimental periodontitis was induced in 20-week-old mice by 5-0 silk suture as described previously 26. Briefly, animals were anesthetized using ketamine/xylazine and buprenorphine and the sutures were placed around the maxillary second molar and tied on the palatal side for 2 weeks. The ethical approval of this study was provided by the IACUC of UCSD. The care and use of laboratory animals and Animal Research was performed in accordance with NIH guidelines.
# AdipoRon (50 mg/kg body weight)^23, 24 and the AdipoAI (25 mg/kg body weight)^25 were administered by oral gavage concurrently with establishment of experimental periodontitis for 2 weeks.
# Gingival tissues from the palatal side were sampled and immediately stored in liquid nitrogen until further analysis. The skulls were scanned by the Bruker Skyscan micro-CT system (Bruker, Kontich, Belgium). Alveolar bone loss, defined as the distance between the cementoenamel junction (CEJ) to the alveolar bone crest (ABC), was measured at six sites (mesio-buccal, mid-buccal, disto-buccal, mesio-palatal, mid-palatal, and disto-palatal) using Ctan software (http://bruker-microct.com/products/downloads.htm) as previously reported^26. Periodontal hard tissue sections were stained with Acid Phosphatase, Leukocyte (TRAP) Kit (Sigma, St. Louis, MO, USA) according to the manufacturer's instructions.
# Total RNA was isolated from cell cultures and gingival soft tissues using TriZol reagent (Life Technologies, Carlsbad, CA, USA) according to the manufacturer's instructions^24. Reverse transcription was performed using the PrimeScript RT Master Mix (Takara Bio, Otsu, Japan) and real-time-qPCR analyses were performed using SYBR-Green Real-Time PCR Master Mix (Takara Bio, Otsu, Japan) as described earlier^27.
# [3] = LPS-induced Raw264.7 cells, AdipoAI 5 μM
Structure (SMILES),APPL1 protein expression ([1]; Raw264.7 cells),densitometry value p-IRAK4 (FIG. 5a) [1],densitometry value p-P38 (FIG. 5a) [1],"densitometry value APPL1 (FIG. 5e), without LPS ([1]; AdipoAI 5 μM)","densitometry value APPL1 (FIG. 5e), with LPS [1]",numbers of osteoclasts on alveolar bone (TRAP stain) [2],IL-6 and CCL-2 gene expression in periodontal epithelium [2],bodyweight [2],decrease in fasting blood glucose level [2] [%],average alveolar bone loss at 6 sites (CEJ-ABC distance) [2] [μm],"phosphorylation of AKT, JNK or ERK ([1]; LPS-induced Raw264.7 cells)","decrease of phosphorylation of IRAK4 [1, 3] [%]","decrease of phosphorylation of p38 [1, 3] [%]",AdipoR1 or AdipoR2 protein levels ([1]; Raw264.7 cells),LPS-induced p65 phosphorylation and nuclear translocation ([1]; Raw264.7 cells)
"O=C(COc1ccc(C(=O)c2ccccc2)cc1)NC1CCN(Cc2ccccc2)CC1 [AdipoRon, reference compound]",increased,0.13,0.76,1.53,0.45,significantly decreased numbers of osteoclasts,significantly attenuated the IL-6 and CCL-2 gene expression,decreased significantly,73.3,344.5±22.2,–,–,–,–,–
COc1ccc(CN2CCC(NC(=O)COc3ccc(C(=O)c4ccc(Cl)cc4)cc3)CC2)cc1 [Compound 3],increased APPL1 expression,0.09,0.26,1.58,0.67,significantly decreased numbers of osteoclasts,significantly attenuated the IL-6 and CCL-2 gene expression,decreased significantly,75.3,328.5±19.9,"did not significantly alter phosphorylation of AKT, JNK or ERK",70,70,did not influence AdipoR1 or AdipoR2 protein levels,suppressed LPS-induced p65 phosphorylation and nuclear translocation
